Reference: patent US9302999B2, “Substituted triazoles as herbicides” (E. I. DU PONT DE NEMOURS AND COMPANY, priority 2012, dated 2016)

Tests used:
Format in all cases: in vivo
rice (Oryza sativa) = assay: Test C flooded paddy test: rice; conditions: scale 0 to 100 (0 no effect, 100 complete control); for plant injury at 62 g/ha / plant injury at 250 g/ha: Oryza sativa, read-out: Plant response rating, Rice
In short: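 Greenhouse plants treated at the 2-leaf stage by dosing the flood water (3 cm depth, maintained) were compared with controls after 13 to 15 days and rated 0 to 100, where 100 means complete control; a dash marks no test result.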

[1] = tested on: field bindweed (Convolvulus arvensis); assay: Test E pre-/postemergence: field bindweed; conditions: scale 0 to 100
Description: Seeds of plant species selected from corn (Zea mays), soybean (Glycine max), velvetleaf (Abutilon theophrasti), lambsquarters (Chenopodium album), poinsettia, wild (wild poinsettia, Euphorbia heterophylla), pigweed, palmer (palmer pigweed, Amaranthus palmeri), waterhemp (common waterhemp, Amaranthus rudis), smartweed (ladysthumb smartweed, Polygonum persicaria), surinam grass (Brachiaria decumbens), crabgrass, large (large crabgrass, Digitaria sanguinalis), crabgrass, Brazil (Brazilian crabgrass, Digitaria horizontalis), panicum, fall (fall panicum, Panicum dichotomiflorum), foxtail, giant (giant foxtail, Setaria faberii), foxtail, green (green foxtail, Setaria viridis), goosegrass (Eleusine indica), johnsongrass (Sorghum halepense), ragweed (common ragweed, Ambrosia elation), barnyardgrass (Echinochloa crus-galli), sandbur (southern sandbur, Cenchrus echinatus), arrowleaf sida (Sida rhombifolia), ryegrass, Italian (Italian ryegrass, Lolium multiflorum), dayflower, (VA) (Virginia dayflower, Commelina virginica), field bindweed (Convolvulus arvensis), cocklebur (common cocklebur, Xanthium strumarium), morningglory (Ipomoea coccinea), nightshade (eastern black nightshade, Solanum ptycanthum), kochia (Kochia scoparia), nutsedge, yellow (yellow nutsedge, Cyperus esculentus) and beggarticks (hairy beggarticks, Bidens pilosa) were planted into a silt loam soil and treated preemergence with test chemicals formulated in a non-phytotoxic solvent mixture which included a surfactant. At the same time, plants selected from these crop and weed species were planted in pots containing a growing medium comprising spaghnum peat moss, vermiculite, wetting agent and starter nutrients and treated with postemergence applications of some of the test chemicals formulated in the same manner. Plants ranged in height from 2 to 18 cm for postemergence treatments (1- to 4-leaf stage).
(§1) Treated plants and controls were maintained in a greenhouse for 14 to 21 days, after which time all species were compared to controls and visually evaluated. Plant response ratings, summarized in Table E, are based on a scale of 0 to 100 where 0 is no effect and 100 is complete control. A dash (-) response means no test result.

[2] = tested on: johnsongrass (Sorghum halepense); assay: Test F pre-/postemergence: johnsongrass; conditions: Preemergence
Description: Seeds of plant species selected from corn (Zea mays), soybean (Glycine max), velvetleaf (Abutilon theophrasti), lambsquarters (Chenopodium album), poinsettia, wild (wild poinsettia, Euphorbia heterophylla), pigweed, palmer (palmer pigweed, Amaranthus palmeri), waterhemp (common waterhemp, Amaranthus rudis), surinam grass (Brachiaria decumbens), crabgrass, Brazil (Brazilian crabgrass, Digitaria horizontalis), panicum, fall (fall panicum Panicum dichotomiflorum), crabgrass, large (large crabgrass, Digitaria sanguinalis), foxtail, giant (giant foxtail, Setaria faberii), foxtail, green (green foxtail Setaria viridis), goosegrass (Eleusine indica), ragweed (common ragweed, Ambrosia elatior), barnyardgrass (Echinochloa crus-galli), sandbur (southern sandbur, Cenchrus echinatus), arrowleaf sida (Sida rhombifolia), ryegrass, Italian (Italian ryegrass, Lolium multiflorum), dayflower, VA (Virginia (VA) dayflower, Commelina virginica), field bindweed (Convolvulus arvensis), cocklebur (common cocklebur, Xanthium strumarium), morningglory (Ipomoea coccinea), nightshade (eastern black nightshade, Solanum ptycanthum), kochia (Kochia scoparia), nutsedge, yellow (yellow nutsedge, Cyperus esculentus), johnsongrass (Sorghum halepense), smartweed (ladysthumb smartweed, Polygonum persicaria), and beggarticks (hairy beggarticks, Bidens pilosa), were planted into a silt loam soil and treated preemergence with test chemicals formulated in a non-phytotoxic solvent mixture which included a surfactant. At the same time, plants selected from these crop and weed species and also pigweed (Amaranthus retroflexus), waterhemp_RES1 (ALS/Triazine resistant common waterhemp, Amaranthus rudis) and waterhemp_RES2 (ALS/HPPD resistant common waterhemp, Amaranthus rudis) were planted in pots containing a planting medium comprising spaghnum peat moss, vermiculite, wetting agent and starter nutrients treated with postemergence applications of some of the test chemicals formulated in the same manner. Plants ranged in height from 2 to 18 cm for postemergence treatments (1- to 4-leaf stage).
as §1

Waterhemp = assay: Test C preemergence: waterhemp; conditions: 62 g ai/ha, scale of 0 to 100, 0 is no effect, 100 is complete control
Description: Seeds of plant species selected from blackgrass (Alopecurus myosuroides), bromegrass, downy (downy bromegrass, Bromus tectorum), foxtail, green (green foxtail, Setaria viridis), ryegrass, Italian (Italian ryegrass, Lolium multiflorum), winter wheat (Triticum aestivum), wild oat (Avena fatua), galium (catchweed bedstraw, Galium aparine), bermudagrass (Cynodon dactylon), surinam grass (Brachiaria decumbens), cocklebur (common cocklebur, Xanthium strumarium), corn (Zea mays), large crabgrass (Digitaria sanguinalis), woolly cupgrass (Eriochloa villosa), foxtail, giant (giant foxtail, Setaria faberii), goosegrass (Eleusine indica), johnsongrass (Sorghum halepense), kochia (Kochia scoparia), lambsquarters (Chenopodium album), morningglory (Ipomoea coccinea), nightshade (eastern black nightshade, Solanum ptycanthum), nutsedge, yellow (yellow nutsedge, Cyperus esculentus), pigweed (Amaranthus retroflexus), ragweed (common ragweed, Ambrosia elation), soybean (Glycine max), common (oilseed) sunflower (Helianthus annuus), Russian thistle (Salsola kali) and velvetleaf (Abutilon theophrasti) were planted into a blend of loam soil and sand and treated preemergence with test chemicals formulated in a non-phytotoxic solvent mixture which included a surfactant.
as §1, with “13” for “14”, “15” for “21”, “C,” for “E,”

[3] = tested on: foxtail, giant (giant foxtail, Setaria faberii); assay: Test F pre-/postemergence: foxtail, giant; conditions: Preemergence
In short: (§2)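 0–100 visual control scores, taken 14–21 d after application in the greenhouse. Preemergence treatment was made to silt loam soil at sowing. Postemergence sprays hit 1- to 4-leaf plants (2–18 cm) in peat/vermiculite mix. Surfactant-containing non-phytotoxic solvent served as the vehicle.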

soybean (Glycine max) = assay: Test F pre-/postemergence: soybean; conditions: Preemergence
In short: as §2

[4] = Flood (flooded paddy test), 62 g ai/ha, visual rating after 13 to 15 days
[5] = Flood (flooded paddy test), 250 g ai/ha, visual rating after 13 to 15 days
[6] = Flood (flooded paddy test), 125 g ai/ha, visual rating after 13 to 15 days
[7] = 16 g ai/ha, scale 0 to 100, 0 no effect, 100 complete control
[8] = 31 g ai/ha, scale 0 to 100, 0 no effect, 100 complete control

## FC(F)(F)COc1nn(-c2ccc(C(F)(F)F)cc2)nc1Cc1ccnc(C(F)(F)F)c1 [Compound 14, 4-[[5-(2,2,2-trifluoroethoxy)-2-[4-(trifluoromethyl)phenyl]-2H-1,2,3-triazol-4-yl]methyl]-2-(trifluoromethyl)pyridine]
Rice (Oryza sativa); [4]
  plant injury at 62 g/ha: 40%
Rice (Oryza sativa); [5]
  plant injury at 250 g/ha: 45%
[1]; Preemergence, 16 g ai/ha
  Plant response rating: Field Bindweed: 5
[1]; Preemergence, 31 g ai/ha
  Plant response rating: Field Bindweed: 20
[1]; Preemergence, 62 g ai/ha
  Plant response rating: Field Bindweed: 65
[1]; Preemergence, 125 g ai/ha
  Plant response rating: Field Bindweed: 65
[1]; Preemergence, 250 g ai/ha
  Plant response rating: Field Bindweed: 75

## COc1nn(-c2ccc(C(F)(F)F)cc2)nc1Cc1ccnc(C(F)(F)F)c1 [Compound 15, 4-[[5-methoxy-2-[4-(trifluoromethyl)phenyl]-2H-1,2,3-triazol-4-yl]methyl]-2-(trifluoromethyl)pyridine]
Rice (Oryza sativa); [4]
  plant injury at 62 g/ha: 45%
Rice (Oryza sativa); [5]
  plant injury at 250 g/ha: 50%
[1]; Preemergence, 16 g ai/ha
  Plant response rating: Field Bindweed: 5
[1]; Preemergence, 31 g ai/ha
  Plant response rating: Field Bindweed: 5
[1]; Preemergence, 62 g ai/ha
  Plant response rating: Field Bindweed: 40
[1]; Preemergence, 125 g ai/ha
  Plant response rating: Field Bindweed: 60
[1]; Preemergence, 250 g ai/ha
  Plant response rating: Field Bindweed: 95

## Cc1nn(-c2ccc(C(F)(F)F)cn2)nc1Oc1ccnc(C(F)(F)F)c1 [Compound 23]
Rice (Oryza sativa); [4]
  Plant response rating, Rice: 0
Rice (Oryza sativa); [6]
  Plant response rating, Rice: 0
Rice (Oryza sativa); [5]
  Plant response rating, Rice: 30
Rice (Oryza sativa); Flood, 31 g ai/ha
  Plant response rating, Rice: 0
[1]; Preemergence, 16 g ai/ha
  Plant response rating: Field Bindweed: 0
[1]; Preemergence, 31 g ai/ha
  Plant response rating: Field Bindweed: 0
[1]; Preemergence, 62 g ai/ha
  Plant response rating: Field Bindweed: 0
[1]; Preemergence, 125 g ai/ha
  Plant response rating: Field Bindweed: 0
[1]; Preemergence, 250 g ai/ha
  Plant response rating: Field Bindweed: 70

## Cc1nn(-c2ccc(C(F)(F)F)cc2)nc1Oc1ccnc(C(F)(F)F)c1 [Compound 120]
Rice (Oryza sativa); [6]
  Plant response rating, Rice: 70
Rice (Oryza sativa); [5]
  Plant response rating, Rice: 80
Rice (Oryza sativa); Flood, 62 g ai/ha
  Plant response rating, Rice: 60
[1]; Postemergence, 16 g ai/ha
  Plant response rating: Field Bindweed: 20
[1]; Postemergence, 31 g ai/ha
  Plant response rating: Field Bindweed: 30
[1]; Postemergence, 62 g ai/ha
  Plant response rating: Field Bindweed: 35
[1]; Postemergence, 125 g ai/ha
  Plant response rating: Field Bindweed: 35
[1]; Preemergence, 16 g ai/ha
  Plant response rating: Field Bindweed: 0
[1]; Preemergence, 31 g ai/ha
  Plant response rating: Field Bindweed: 10
[1]; Preemergence, 62 g ai/ha
  Plant response rating: Field Bindweed: 20
[1]; Preemergence, 125 g ai/ha
  Plant response rating: Field Bindweed: 40
[1]; Preemergence, 250 g ai/ha
  Plant response rating: Field Bindweed: 98

## CCc1nn(-c2ccc(F)cc2)nc1Cc1ccnc(C(F)(F)F)c1 [Compound 154]
[2]; [7]
  Plant response rating, Johnsongrass: 0
[2]; [8]
  Plant response rating, Johnsongrass: 20
[2]; 62 g ai/ha, scale 0 to 100
  Plant response rating, Johnsongrass: 25
[2]; 125 g ai/ha, scale 0 to 100
  Plant response rating, Johnsongrass: 50
[2]; 250 g ai/ha, scale 0 to 100
  Plant response rating, Johnsongrass: 98
Waterhemp
  Plant response rating, Waterhemp: 100
[3]; [7]
  Plant response rating, Foxtail, Giant: 5
[3]; [8]
  Plant response rating, Foxtail, Giant: 65
[3]; 62 g ai/ha, scale 0 to 100
  Plant response rating, Foxtail, Giant: 100
[3]; 125 g ai/ha, scale 0 to 100
  Plant response rating, Foxtail, Giant: 100
[3]; 250 g ai/ha, scale 0 to 100
  Plant response rating, Foxtail, Giant: 100
Soybean (Glycine max); [7]
  Plant response rating, Soybean: 0
Soybean (Glycine max); [8]
  Plant response rating, Soybean: 0
Soybean (Glycine max); 125 g ai/ha, scale 0 to 100
  Plant response rating, Soybean: 25
Soybean (Glycine max); 250 g ai/ha, scale 0 to 100
  Plant response rating, Soybean: 25

## CCc1nn(-c2ccc(C(F)(F)F)cc2)nc1Cc1ccnc(C(F)(F)F)c1 [Compound 155]
[2]; 62 g ai/ha, scale 0 to 100
  Plant response rating, Johnsongrass: 90
[2]; 125 g ai/ha, scale 0 to 100
  Plant response rating, Johnsongrass: 90
[2]; 250 g ai/ha, scale 0 to 100
  Plant response rating, Johnsongrass: 100
Waterhemp
  Plant response rating, Waterhemp: 100
[3]; 62 g ai/ha, scale 0 to 100
  Plant response rating, Foxtail, Giant: 98
[3]; 125 g ai/ha, scale 0 to 100
  Plant response rating, Foxtail, Giant: 100
[3]; 250 g ai/ha, scale 0 to 100
  Plant response rating, Foxtail, Giant: 100
Soybean (Glycine max); 125 g ai/ha, scale 0 to 100
  Plant response rating, Soybean: 30
Soybean (Glycine max); 250 g ai/ha, scale 0 to 100
  Plant response rating, Soybean: 30

## Cc1nn(-c2ccc(F)c(C(F)(F)F)c2)nc1Cc1ccnc(C(F)(F)F)c1 [Compound 156]
Waterhemp
  Plant response rating, Waterhemp: 100

## FCc1nn(-c2ccc(F)cc2)nc1Oc1ccnc(C(F)(F)F)c1 [Compound 160]
Waterhemp
  Plant response rating, Waterhemp: 100

## CCOCc1nn(-c2ccc(F)cc2)nc1Oc1ccnc(C(F)(F)F)c1 [Compound 163]
Waterhemp
  Plant response rating, Waterhemp: 100

## CCOc1nn(-c2ccc(Cl)cc2)nc1Cc1ccnc(C(F)(F)F)c1 [Compound 188]
Waterhemp
  Plant response rating, Waterhemp: 100
